According to patent publication US11724992B2 (Novartis AG, priority 2017, dated 2023):

system: IL-1β production in PMA-differentiated THP-1 cells; test: IL-1β production in PMA-differentiated THP-1 cells stimulated with gramicidin (hTHP-1 assay, 2% fetal bovine serum; Procedures 1-3); type: cell-based, human; details: Homo sapiens, THP-1, hTHP-1 assay containing 2% fetal bovine serum; class symbols; read-out: hTHP-1 IC50 (Average IC50 of compounds in hTHP-1 assay)
How it was run: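 PMA-differentiated (20 ng/ml, 16-18 h) THP-1 cells in RPMI with 2% FBS, 50,000 cells/well, preincubated 1 h with compound (final 100–0.0017 μM, 0.37% DMSO), then stimulated with 5 μM gramicidin for 2 h. Supernatant IL-1β measured by HTRF.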

| SMILES | IC50 |
| --- | --- |
| Cc1cc(S(N)(=O)=NC(=O)Nc2c3c(cc4c2CCC4)CCC3)ccc1C(C)(C)O (centres unmarked) [Example 52, N′-((1,2,3,5,6,7-hexahydro-s-indacen-4-yl)carbamoyl)-4-(2-hydroxypropan-2-yl)-3-methylbenzenesulfonimidamide] | 200 to 1000 nM |
| Cc1nc(C(C)(C)O)sc1S(N)(=O)=NC(=O)Nc1c2c(cc3c1CCC3)CCC2 (centres unmarked) [Example 53, N′-((1,2,3,5,6,7-hexahydro-s-indacen-4-yl)carbamoyl)-2-(2-hydroxypropan-2-yl)-4-methylthiazole-5-sulfonimidamide] | 8 to 40 nM |
| CC(C)(O)c1cc(F)cc(S(N)(=O)=NC(=O)Nc2c3c(c(F)c4c2CCC4)CCC3)c1 (centres unmarked) [Example 56, 3-fluoro-N′-((8-fluoro-1,2,3,5,6,7-hexahydro-s-indacen-4-yl)carbamoyl)-5-(2-hydroxypropan-2-yl)benzenesulfonimidamide] | 200 to 1000 nM |
| Cc1cc(S(N)(=O)=NC(=O)Nc2c(C(C)C)cc(OC(F)F)cc2C(C)C)sc1C(C)(C)O (centres unmarked) [Example 57, N′-((4-(difluoromethoxy)-2,6-diisopropylphenyl)carbamoyl)-5-(2-hydroxypropan-2-yl)-4-methylthiophene-2-sulfonimidamide] | 200 to 1000 nM |
| CC(C)(O)c1cc(S(N)(=O)=NC(=O)Nc2c3c(c(F)c4c2CCC4)CCC3)ccc1F (centres unmarked) [Example 58, 4-fluoro-N′-((8-fluoro-1,2,3,5,6,7-hexahydro-s-indacen-4-yl)carbamoyl)-3-(2-hydroxypropan-2-yl)benzenesulfonimidamide] | 1000 to 5000 nM |
| Cc1nc(C(C)(C)O)sc1S(N)(=O)=NC(=O)Nc1c2c(c(F)c3c1CCC3)CCC2 (centres unmarked) [Example 59, N′-((8-fluoro-1,2,3,5,6,7-hexahydro-s-indacen-4-yl)carbamoyl)-2-(2-hydroxypropan-2-yl)-4-methylthiazole-5-sulfonimidamide] | 8 to 40 nM |
| CC(C)(O)c1ccc(S(N)(=O)=NC(=O)Nc2c3c(cc4c2CCC4)CCC3)cc1F (centres unmarked) [Example 60, 3-fluoro-N′-((1,2,3,5,6,7-hexahydro-s-indacen-4-yl)carbamoyl)-4-(2-hydroxypropan-2-yl)benzenesulfonimidamide] | 1000 to 5000 nM |
| CC(C)(O)c1csc(S(N)(=O)=NC(=O)Nc2c3c(c(F)c4c2CCC4)CCC3)n1 (centres unmarked) [Example 61, N′-((8-fluoro-1,2,3,5,6,7-hexahydro-s-indacen-4-yl)carbamoyl)-4-(2-hydroxypropan-2-yl)thiazole-2-sulfonimidamide] | 8 to 40 nM |
| CC(C)c1ccc(F)c(C(C)C)c1NC(=O)N=S(N)(=O)c1cnc(C(C)(C)O)s1 (centres unmarked) [Example 62, N′-((3-fluoro-2,6-diisopropylphenyl)carbamoyl)-2-(2-hydroxypropan-2-yl)thiazole-5-sulfonimidamide] | 40 to 200 nM |
| CC(C)c1cc(C#N)cc(C(C)C)c1NC(=O)N=S(N)(=O)c1cc(C#N)cc(C(C)(C)O)c1 (centres unmarked) [Example 67, 3-cyano-N′-((4-cyano-2,6-diisopropylphenyl)carbamoyl)-5-(2-hydroxypropan-2-yl)benzenesulfonimidamide] | 200 to 1000 nM |
| CC(C)c1cc(C#N)c(F)c(C(C)C)c1NC(=O)NS(=N)(=O)c1sc(C(C)(C)O)nc1CO (centres unmarked) [Example 71, N-((4-cyano-3-fluoro-2,6-diisopropylphenyl)carbamoyl)-4-(hydroxymethyl)-2-(2-hydroxypropan-2-yl)thiazole-5-sulfonimidamide] | 1000 to 5000 nM |
| CC(C)(O)c1ncc(S(N)(=O)=NC(=O)Nc2c3c(cc4c2CC4)CCC3)s1 (centres unmarked) [Example 223, 2-(2-Hydroxypropan-2-yl)-N′-((2,4,5,6-tetrahydro-1H-cyclobuta[f]inden-3-yl)carbamoyl)thiazole-5-sulfonimidamide] | 8 to 40 nM |
| CNS(=O)(=NC(=O)Nc1c2c(cc3c1CCC3)CCC2)c1cnc(C(C)(C)O)s1 (centres unmarked) [Example 247, N′-((1,2,3,5,6,7-hexahydro-s-indacen-4-yl)carbamoyl)-2-(2-hydroxypropan-2-yl)-N-methylthiazole-5-sulfonimidamide] | 5000 to 30000 nM |
| CN(C(=O)N=S(N)(=O)c1cnc(C(C)(C)O)s1)c1c2c(cc3c1CCC3)CCC2 (centres unmarked) [Example 248, N′-((1,2,3,5,6,7-hexahydro-s-indacen-4-yl)(methyl)carbamoyl)-2-(2-hydroxypropan-2-yl)thiazole-5-sulfonimidamide] | 5000 to 30000 nM |
| CC(C)(O)c1cnc(S(N)(=O)=NC(=O)Nc2c3c(cc4c2OCC4)CCC3)s1 (centres unmarked) [Example 258, 5-(2-Hydroxypropan-2-yl)-N′-((3,5,6,7-tetrahydro-2H-indeno[5,6-b]furan-8-yl)carbamoyl)thiazole-2-sulfonimidamide] | 40 to 200 nM |
| CC(C)(O)c1csc(S(N)(=O)=NC(=O)Nc2c3c(cc4c2OCC4)CCC3)n1 (centres unmarked) [Example 263, 4-(2-Hydroxypropan-2-yl)-N′-((3,5,6,7-tetrahydro-2H-indeno[5,6-b]furan-8-yl)carbamoyl)thiazole-2-sulfonimidamide] | 8 to 40 nM |
| CN(C)C(C)(C)c1ccc(S(N)(=O)=NC(=O)Nc2c3c(cc4c2CCC4)CCC3)cc1 (centres unmarked) [Example 267, 4-(2-(Dimethylamino)propan-2-yl)-N′-(1,2,3,5,6,7-hexahydro-s-indacen-4-ylcarbamoyl)benzenesulfonimidamide] | 40 to 200 nM |
| CC(C)(O)c1cc(F)c(S(N)(=O)=NC(=O)Nc2c3c(cc4c2CCC4)CCC3)s1 (centres unmarked) [Example 269, 3-Fluoro-N′-(1,2,3,5,6,7-hexahydro-s-indacen-4-ylcarbamoyl)-5-(2-hydroxypropan-2-yl)thiophene-2-sulfonimidamide] | 8 to 40 nM |
| COC(C)(C)c1ccc(S(N)(=O)=NC(=O)Nc2c3c(cc4c2CCC4)CCC3)cc1 (centres unmarked) [Example 274, N′-(1,2,3,5,6,7-hexahydro-s-indacen-4-ylcarbamoyl)-4-(2-methoxypropan-2-yl)benzenesulfonimidamide] | 200 to 1000 nM |
| CN(C)Cc1ccc(S(N)(=O)=NC(=O)Nc2c3c(cc4c2CCC4)CCC3)nc1 (centres unmarked) [Example 278, 5-((Dimethylamino)methyl)-N′-(1,2,3,5,6,7-hexahydro-s-indacen-4-ylcarbamoyl)pyridine-2-sulfonimidamide] | 200 to 1000 nM |
| CN(C)Cc1cc(F)c(S(N)(=O)=NC(=O)Nc2c3c(cc4c2CCC4)CCC3)s1 (centres unmarked) [Example 279, 5-((Dimethylamino)methyl)-3-fluoro-N′-(1,2,3,5,6,7-hexahydro-s-indacen-4-ylcarbamoyl)thiophene-2-sulfonimidamide] | 8 to 40 nM |
| CC(C)(O)c1ncc(S(N)(=O)=NC(=O)Nc2cc3c(c4c2CCC4)CCC3)s1 (centres unmarked) [Example 285, N′-((1,2,3,6,7,8-hexahydro-as-indacen-4-yl)carbamoyl)-2-(2-hydroxypropan-2-yl)thiazole-5-sulfonimidamide] | 40 to 200 nM |
| CC(C)(O)c1ncc(S(N)(=O)=NC(=O)Nc2c3c(cc4c2OCC4)CCC3)s1 (centres unmarked) [Example 289, 2-(2-Hydroxypropan-2-yl)-N′-((3,5,6,7-tetrahydro-2H-indeno[5,6-b]furan-8-yl)carbamoyl)thiazole-5-sulfonimidamide] | 40 to 200 nM |
| COC(C)(C)c1ncc(S(N)(=O)=NC(=O)Nc2c3c(cc4c2CCC4)CCC3)s1 (centres unmarked) [Example 295, N′-((1,2,3,5,6,7-hexahydro-s-indacen-4-yl)carbamoyl)-2-(2-methoxypropan-2-yl)thiazole-5-sulfonimidamide] | 40 to 200 nM |

same assay, conditions: hTHP-1 assay containing 2% fetal bovine serum; class symbols; read-out: hTHP-1 IC50 (Average IC50 of compounds in hTHP-1 assay)

| SMILES | IC50 |
| --- | --- |
| CC(C)c1cc(C#N)c(F)c(C(C)C)c1NC(=O)N=S(N)(=O)c1cnc(C(C)(O)CO)s1 (centres unmarked) [Example 72, N′-((4-cyano-3-fluoro-2,6-diisopropylphenyl)carbamoyl)-2-(1,2-dihydroxypropan-2-yl)thiazole-5-sulfonimidamide] | 200 to 1000 nM |
| Cc1oc(S(N)(=O)=NC(=O)Nc2c3c(cc4c2C(C)CC4)CCC3)cc1C(C)(C)O [Example 127, Two isomers of (R,S)-and (R,R)-or (S,S)-and (S,R) 4-(2-hydroxypropan-2-yl)-5-methyl-N′-((3-methyl-1,2,3,5,6,7-hexahydro-s-indacen-4-yl)carbamoyl)furan-2-sulfonimidamide] | 40 to 200 nM |
| CC(c1ccc(S(N)(=O)=NC(=O)Nc2c3c(cc4c2CCC4)CCC3)cc1)N(C)C (centres unmarked) [Example 266, 4-(1-(Dimethylamino)ethyl)-N′-(1,2,3,5,6,7-hexahydro-s-indacen-4-ylcarbamoyl)benzenesulfonimidamide] | 40 to 200 nM |
| CN1CCCC1c1ccc(S(=N)(=O)NC(=O)Nc2c3c(cc4c2CCC4)CCC3)cc1 (centres unmarked) [Example 283, N-((1,2,3,5,6,7-hexahydro-s-indacen-4-yl)carbamoyl)-4-(1-methylpyrrolidin-2-yl)benzenesulfonimidamide] | 200 to 1000 nM |
| CC1CCc2c1cc1c(c2NC(=O)N=S(N)(=O)c2cnc(C(C)(C)O)s2)CCC1 (centres unmarked) [Example 291, 2-(2-Hydroxypropan-2-yl)-N′-((1-methyl-1,2,3,5,6,7-hexahydro-s-indacen-4-yl)carbamoyl)thiazole-5-sulfonimidamide] | 40 to 200 nM |
| CC1CCc2cc3c(c(NC(=O)N=S(N)(=O)c4cnc(C(C)(C)O)s4)c21)CCC3 (centres unmarked) [Example 292, 2-(2-Hydroxypropan-2-yl)-N′-((3-methyl-1,2,3,5,6,7-hexahydro-s-indacen-4-yl)carbamoyl)thiazole-5-sulfonimidamide] | 40 to 200 nM |
